Assays:
[1] = tested on: atopic dermatitis-induced Nc/Nga mouse; assay: SCORAD clinical skin score, DNFB-induced atopic dermatitis in Nc/Nga mouse; type: in vivo; set-up: key to Mouse 1 Erythema / Mouse 2 Eschar / Mouse 2 Dryness / Mouse 2 Abrasion / Mouse 1 Edema / Mouse 1 Eschar / Mouse 1 Dryness / Mouse 1 Abrasion / Mouse 2 Erythema / Mouse 2 Edema / Mouse 3 Erythema / Mouse 3 Edema / Mouse 3 Eschar / Mouse 3 Dryness / Mouse 3 Abrasion: 0 = no symptom, 1 = mild, 2 = moderate, 3 = severe; key to Mouse 1 Sum / Mean (of Sum, SCORAD) / Mouse 3 Sum: sum of individual symptom scores, each graded 0-3; settings: for Mouse 1 Erythema: DNFB Nc/Nga (FIG. 8), 0.1% in PBS, 200 μL on back skin daily day 15-21; for Mouse 1 Erythema / Mouse 1 Abrasion / Mouse 1 Dryness / Mouse 1 Edema / Mouse 1 Eschar / Mouse 1 Lichenification / Mouse 2 Abrasion / Mouse 2 Dryness / Mouse 2 Edema / Mouse 2 Erythema / Mouse 2 Eschar / Mouse 2 Lichenification / Mouse 3 Abrasion / Mouse 3 Dryness / Mouse 3 Edema / Mouse 3 Erythema / Mouse 3 Eschar / Mouse 3 Lichenification: graded per Example 4; for Mouse 1 Abrasion / Mouse 1 Dryness / Mouse 1 Edema / Mouse 1 Eschar / Mouse 1 Lichenification / Mouse 1 Sum / Mouse 2 Abrasion / Mouse 2 Dryness / Mouse 2 Edema / Mouse 2 Erythema / Mouse 2 Eschar / Mouse 2 Lichenification / Mouse 2 Sum / Mouse 3 Abrasion / Mouse 3 Dryness / Mouse 3 Edema / Mouse 3 Erythema / Mouse 3 Eschar / Mouse 3 Lichenification / Mouse 3 Sum / Mean (of Sum, SCORAD): DNFB Nc/Nga, 0.1% topical day 15-21; for Mouse 1 Sum / Mouse 2 Sum / Mouse 3 Sum: sum of individual scores; for Mean (of Sum, SCORAD): mean of 3 mice
Method: In order to establish a model more similar to an atopy model than that of the Balb/c mice, atopy was induced in Nc/Nga mouse mice. Specifically, after inducing DNFB sensitization by applying 100 μL of 0.35% 2,4-dinitrofluorobenzene (DNFB) in acetone/olive oil (3:1) on the shaved back skin, dermatitis was induced by applying 100 μL of 0.15% DNFB for 4-20 days, every other day. Control mice were treated with a vehicle of the same volume (FIG. 1B).
(§1) After dissolving an N-acetyl or N-acylamino acid in phosphate-buffered saline to 0.1%, 200 μL of the solution was applied on the back skin of the mice every day, from day 22 until day 28 for the Balb/c atopic dermatitis model, and from day 15 until day 21 for the Nc/Nga atopic dermatitis model. When the N-acetyl or N-acylamino acid was treated together with DNFB, they were treated with 12-hour intervals in order to avoid direct reaction between the DNFB and the N-acetyl or N-acylamino acid. A non-treated group and a 2,4-dinitrofluorobenzene (DNFB) group were treated with phosphate-buffered saline of the same volume (FIGS. 1A-1B). As the N-acetylamino acid, products purchased from Sigma-Aldrich (USA), MP scientific (USA), TCI (Tokyo Chemical Industry, Japan), Santacruz (USA), etc. were used without purification.
(§2) The degree of skin soothing and the severity of atopic dermatitis were evaluated macroscopically according to the previously established SCORAD (SCORing Atopic Dermatitis) method (Oranje et al., 2007). The degree of symptoms such as edema, erythema, eschar, dryness, abrasion, lichenification, etc. was graded from 0 to 3 (0, no symptom; 1, mild; 2, moderate; 3, severe). The overall dermatitis score was determined from the sum of all individual scores (Table 1). The assessment was performed by an investigator who was blind to the grouping of the mice.
Skin-soothing effect and the severity of dermatitis were evaluated for the acyl derivatives of tryptophan synthesized in Example 9, the acyl derivative of alanine synthesized in Example 10 and N-palmitoylalanine (purchased from Santacruz (USA)) according to the method of Example 4 (Table 2)

[2] = tested on: atopic dermatitis-induced Balb/c mouse; assay: SCORAD clinical skin score, DNFB-induced atopic dermatitis in Balb/c mouse; type: in vivo; set-up: key to Mouse 1 Sum / Mean (of Sum, SCORAD) / Mouse 2 Sum / Mouse 3 Sum: sum of symptom grades, each 0 (none) to 3 (severe); settings: DNFB Balb/c; for Mouse 1 Erythema: 0.1% in PBS, 200 μL on back skin daily day 22-28, grade 0-3 (0 no symptom, 1 mild, 2 moderate, 3 severe); for Mouse 1 Abrasion / Mouse 1 Dryness / Mouse 1 Edema / Mouse 1 Eschar / Mouse 1 Lichenification / Mouse 1 Sum / Mouse 2 Abrasion / Mouse 2 Dryness / Mouse 2 Edema / Mouse 2 Erythema / Mouse 2 Eschar / Mouse 2 Lichenification / Mouse 2 Sum / Mouse 3 Abrasion / Mouse 3 Dryness / Mouse 3 Edema / Mouse 3 Erythema / Mouse 3 Eschar / Mouse 3 Lichenification / Mouse 3 Sum / Mean (of Sum, SCORAD): 0.1% topical day 22-28; for Mouse 1 Abrasion / Mouse 1 Dryness / Mouse 1 Edema / Mouse 1 Eschar / Mouse 1 Lichenification / Mouse 2 Abrasion / Mouse 2 Dryness / Mouse 2 Edema / Mouse 2 Erythema / Mouse 2 Eschar / Mouse 2 Lichenification / Mouse 3 Abrasion / Mouse 3 Dryness / Mouse 3 Edema / Mouse 3 Erythema / Mouse 3 Eschar / Mouse 3 Lichenification: grade 0-3; for Mouse 1 Sum / Mouse 2 Sum / Mouse 3 Sum: overall dermatitis score, sum of individual scores; for Mean (of Sum, SCORAD): mean of 3 mice
Method: In order to induce atopy-like dermatitis in Balb/c mice, DNFB sensitization was induced by applying 100 μL of 0.35% 2,4-dinitrofluorobenzene (DNFB) (Sigma, USA) in acetone/olive oil (3:1) on the shaved back skin of the mice. Then, dermatitis was induced by applying 100 μL of 0.25% DNFB on days 6, 9, 12, 15, 18 21, 24 and 27 on the shaved back skin. Control mice were treated with a vehicle of the same volume (FIG. 1A).
as §1, §2

## CCCCCCCC/C=C\CCCCCCCCCCCC(=O)N[C@@H](Cc1c[nH]c2ccccc12)C(=O)O [N-(Z)-docos-13-enoyl L-tryptophan, N—(Z)-docos-13-enoyl-L-tryptophan]
[1]
  Mouse 1 Erythema: 1
  Mouse 1 Abrasion: 1
  Mouse 1 Dryness: 1
  Mouse 1 Edema: 1
  Mouse 1 Eschar: 1
  Mouse 1 Lichenification: 0
  Mouse 1 Sum: 5
  Mouse 2 Abrasion: 1
  Mouse 2 Dryness: 2
  Mouse 2 Edema: 1
  Mouse 2 Erythema: 1
  Mouse 2 Eschar: 2
  Mouse 2 Lichenification: 0
  Mouse 2 Sum: 7
  Mouse 3 Abrasion: 1
  Mouse 3 Dryness: 2
  Mouse 3 Edema: 1
  Mouse 3 Erythema: 2
  Mouse 3 Eschar: 2
  Mouse 3 Lichenification: 1
  Mouse 3 Sum: 9
  Mean (of Sum, SCORAD): 7

## CC(=O)N[C@@H](C)C(=O)O [D-form N-acetylalanine, N-acetylalanine, reference compound]
[1]; Nc/Nga atopic dermatitis model, 0.1%
  dermatitis-treating effect of L-, L/D- and D-form (FIG. 6): no effect

## CC(=O)N[C@@H](CCC(=O)N[C@@H](C)C(=O)O)C(=O)O [N-acetyly-glutammyl-L-alanine, N-acetyl-γ-glutammyl-L-alanine]
[1]
  Mouse 1 Erythema: 0
  Mouse 1 Abrasion: 1
  Mouse 1 Dryness: 0
  Mouse 1 Edema: 1
  Mouse 1 Eschar: 0
  Mouse 1 Lichenification: 2
  Mouse 1 Sum: 4
  Mouse 2 Abrasion: 1
  Mouse 2 Dryness: 1
  Mouse 2 Edema: 1
  Mouse 2 Erythema: 1
  Mouse 2 Eschar: 2
  Mouse 2 Lichenification: 2
  Mouse 2 Sum: 8
  Mouse 3 Abrasion: 1
  Mouse 3 Dryness: 0
  Mouse 3 Edema: 1
  Mouse 3 Erythema: 1
  Mouse 3 Eschar: 1
  Mouse 3 Lichenification: 2
  Mouse 3 Sum: 6
  Mean (of Sum, SCORAD): 6

## CCCC(=O)N[C@@H](Cc1c[nH]c2ccccc12)C(=O)O [N-butyryl L-tryptophan, N-butyryl-L-tryptophan]
[1]
  Mouse 1 Erythema: 1
  Mouse 1 Abrasion: 1
  Mouse 1 Dryness: 2
  Mouse 1 Edema: 2
  Mouse 1 Eschar: 2
  Mouse 1 Lichenification: 2
  Mouse 1 Sum: 10
  Mouse 2 Abrasion: 2
  Mouse 2 Dryness: 2
  Mouse 2 Edema: 1
  Mouse 2 Erythema: 2
  Mouse 2 Eschar: 1
  Mouse 2 Lichenification: 2
  Mouse 2 Sum: 10
  Mouse 3 Abrasion: 1
  Mouse 3 Dryness: 1
  Mouse 3 Edema: 1
  Mouse 3 Erythema: 1
  Mouse 3 Eschar: 1
  Mouse 3 Lichenification: 2
  Mouse 3 Sum: 6
  Mean (of Sum, SCORAD): 8.7

## CCCCCCCC/C=C\CCCCCCCC(=O)N[C@@H](Cc1c[nH]c2ccccc12)C(=O)O [N-oleoyl-L-tryptophan]
[1]
  Mouse 1 Erythema: 2
  Mouse 1 Abrasion: 2
  Mouse 1 Dryness: 2
  Mouse 1 Edema: 1
  Mouse 1 Eschar: 2
  Mouse 1 Lichenification: 3
  Mouse 1 Sum: 12
  Mouse 2 Abrasion: 2
  Mouse 2 Dryness: 2
  Mouse 2 Edema: 1
  Mouse 2 Erythema: 1
  Mouse 2 Eschar: 1
  Mouse 2 Lichenification: 3
  Mouse 2 Sum: 10
  Mouse 3 Abrasion: 2
  Mouse 3 Dryness: 2
  Mouse 3 Edema: 1
  Mouse 3 Erythema: 2
  Mouse 3 Eschar: 1
  Mouse 3 Lichenification: 2
  Mouse 3 Sum: 10
  Mean (of Sum, SCORAD): 10.7

## CC(=O)N[C@@H](CCCCN)C(=O)O [N-acetyl-L-Lysine]
[2]
  Mouse 1 Erythema: 3
  Mouse 1 Abrasion: 2
  Mouse 1 Dryness: 3
  Mouse 1 Edema: 2
  Mouse 1 Eschar: 2
  Mouse 1 Lichenification: 1
  Mouse 1 Sum: 13
  Mouse 2 Abrasion: 2
  Mouse 2 Dryness: 2
  Mouse 2 Edema: 3
  Mouse 2 Erythema: 3
  Mouse 2 Eschar: 2
  Mouse 2 Lichenification: 3
  Mouse 2 Sum: 15
  Mouse 3 Abrasion: 2
  Mouse 3 Dryness: 3
  Mouse 3 Edema: 2
  Mouse 3 Erythema: 3
  Mouse 3 Eschar: 2
  Mouse 3 Lichenification: 2
  Mouse 3 Sum: 14
  Mean (of Sum, SCORAD): 14

## CSCC[C@H](NC(C)=O)C(=O)O [N-acetyl-L-methionine]
[2]
  Mouse 1 Erythema: 2
  Mouse 1 Abrasion: 2
  Mouse 1 Dryness: 3
  Mouse 1 Edema: 2
  Mouse 1 Eschar: 2
  Mouse 1 Lichenification: 3
  Mouse 1 Sum: 14
  Mouse 2 Abrasion: 2
  Mouse 2 Dryness: 3
  Mouse 2 Edema: 2
  Mouse 2 Erythema: 3
  Mouse 2 Eschar: 3
  Mouse 2 Lichenification: 3
  Mouse 2 Sum: 16
  Mouse 3 Abrasion: 2
  Mouse 3 Dryness: 3
  Mouse 3 Edema: 2
  Mouse 3 Erythema: 2
  Mouse 3 Eschar: 2
  Mouse 3 Lichenification: 3
  Mouse 3 Sum: 14
  Mean (of Sum, SCORAD): 14.67

## CC(=O)N1CCC[C@H]1C(=O)O [N-acetyl-L-proline]
[2]
  Mouse 1 Erythema: 3
  Mouse 1 Abrasion: 2
  Mouse 1 Dryness: 3
  Mouse 1 Edema: 2
  Mouse 1 Eschar: 1
  Mouse 1 Lichenification: 2
  Mouse 1 Sum: 13
  Mouse 2 Abrasion: 2
  Mouse 2 Dryness: 3
  Mouse 2 Edema: 3
  Mouse 2 Erythema: 2
  Mouse 2 Eschar: 2
  Mouse 2 Lichenification: 2
  Mouse 2 Sum: 14
  Mouse 3 Abrasion: 1
  Mouse 3 Dryness: 3
  Mouse 3 Edema: 2
  Mouse 3 Erythema: 3
  Mouse 3 Eschar: 2
  Mouse 3 Lichenification: 2
  Mouse 3 Sum: 13
  Mean (of Sum, SCORAD): 13.33

## CC(=O)N[C@@H](CC(C)C)C(=O)O [N-acetyl-L-leucine]
[2]
  Mouse 1 Erythema: 3
  Mouse 1 Abrasion: 2
  Mouse 1 Dryness: 3
  Mouse 1 Edema: 2
  Mouse 1 Eschar: 2
  Mouse 1 Lichenification: 2
  Mouse 1 Sum: 14
  Mouse 2 Abrasion: 2
  Mouse 2 Dryness: 3
  Mouse 2 Edema: 2
  Mouse 2 Erythema: 3
  Mouse 2 Eschar: 2
  Mouse 2 Lichenification: 3
  Mouse 2 Sum: 15
  Mouse 3 Abrasion: 2
  Mouse 3 Dryness: 3
  Mouse 3 Edema: 2
  Mouse 3 Erythema: 3
  Mouse 3 Eschar: 2
  Mouse 3 Lichenification: 1
  Mouse 3 Sum: 13
  Mean (of Sum, SCORAD): 14

Source: patent US12370161B2, “Composition for treating atopy or pruritus comprising N-acetyl or N-acyl amino acid” (STEMDR INC., priority 2017, dated 2025)
